Results as given in ChEMBL document CHEMBL4680160, “A perspective review on fatty acid amide hydrolase (FAAH) inhibitors as potential therapeutic agents” (Eur J Med Chem, 2020).
Each block holds one molecule with its values, some of them ahead of it.

Columns and labels:
[1] = target: T1, Fatty-acid amide hydrolase 1 (Rattus norvegicus) (UniProt P97612); experiment: Inhibition of rat FAAH expressed in HEK293 cells using AEA as substrate at 100 uM by liquid chromatography/mass spectroscopy relative to control; format: cell-based
T1 sequence (whole entry): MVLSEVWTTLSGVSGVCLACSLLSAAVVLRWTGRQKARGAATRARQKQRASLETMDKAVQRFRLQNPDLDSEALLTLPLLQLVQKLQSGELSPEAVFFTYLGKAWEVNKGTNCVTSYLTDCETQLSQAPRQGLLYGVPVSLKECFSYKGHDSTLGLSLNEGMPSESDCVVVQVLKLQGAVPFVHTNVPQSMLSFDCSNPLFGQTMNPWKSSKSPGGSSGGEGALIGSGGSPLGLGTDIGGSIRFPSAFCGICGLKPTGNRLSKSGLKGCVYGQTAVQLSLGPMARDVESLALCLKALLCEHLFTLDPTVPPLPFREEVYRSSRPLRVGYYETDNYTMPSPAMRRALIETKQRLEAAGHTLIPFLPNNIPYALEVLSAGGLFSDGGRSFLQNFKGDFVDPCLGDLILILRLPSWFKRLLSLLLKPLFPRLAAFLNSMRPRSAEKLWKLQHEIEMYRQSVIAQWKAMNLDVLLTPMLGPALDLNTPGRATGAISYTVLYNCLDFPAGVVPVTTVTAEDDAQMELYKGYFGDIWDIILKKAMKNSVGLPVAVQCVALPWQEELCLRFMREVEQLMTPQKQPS

[2] = target: T2, Fatty-acid amide hydrolase 1 (Homo sapiens, UniProt O00519); experiment: Inhibition of FAAH (unknown origin)
T2 sequence (O00519 whole entry): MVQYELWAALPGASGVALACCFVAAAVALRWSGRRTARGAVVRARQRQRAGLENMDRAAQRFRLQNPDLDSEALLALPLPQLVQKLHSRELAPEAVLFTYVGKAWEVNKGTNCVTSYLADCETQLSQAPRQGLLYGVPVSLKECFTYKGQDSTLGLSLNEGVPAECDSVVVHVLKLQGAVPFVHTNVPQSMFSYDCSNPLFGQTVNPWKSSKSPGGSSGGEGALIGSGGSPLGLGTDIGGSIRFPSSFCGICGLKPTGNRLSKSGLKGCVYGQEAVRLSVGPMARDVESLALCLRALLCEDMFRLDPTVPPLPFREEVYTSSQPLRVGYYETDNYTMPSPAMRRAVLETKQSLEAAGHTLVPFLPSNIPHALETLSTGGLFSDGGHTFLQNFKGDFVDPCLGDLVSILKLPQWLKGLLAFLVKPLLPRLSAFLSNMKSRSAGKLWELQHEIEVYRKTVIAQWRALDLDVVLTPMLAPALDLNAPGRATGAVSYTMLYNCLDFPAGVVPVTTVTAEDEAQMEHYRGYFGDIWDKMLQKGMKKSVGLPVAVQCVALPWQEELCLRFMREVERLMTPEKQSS

[3] = target: T1, Fatty-acid amide hydrolase 1 (Rattus norvegicus); experiment: Inhibition of FAAH in rat brain homogenate using [3H]AEA as substrate at 100 uM incubated for 10 mins by liquid scintillation spectroscopy relative to control; format: tissue-based
[4] = target: T2, Fatty-acid amide hydrolase 1; experiment: Inhibition of human FAAH expressed in HEK293 cells using AMC arachidonyl amide as substrate pre-incubated for 50 mins followed by substrate addition and measured after 30 mins by fluorescence method; format: cell-based
[5] = target: T3, Fatty-acid amide hydrolase 1 (Rattus norvegicus, UniProt P97612); experiment: Inhibition of FAAH in Sprague-Dawley rat brain homogenate using arachidonoyl-ethanolamide and anandamide [ethanolamine-1-3H] as substrate pre-incubated for 10 mins followed by substrate addition and measured after 30 mins by liquid scintillation counting method; format: tissue-based
T3 sequence (P97612 whole entry): T1 sequence (whole entry)

[6] = Kinetic solubility of compound in PBS at pH 7.4; format: physicochemical; conditions: read-out: Kinetic_solubility
[7] = target: T1, Fatty-acid amide hydrolase 1 (Rattus norvegicus); experiment: Inhibition of FAAH in rat brain homogenate using AEA as substrate at 100 nM preincubated for 15 mins followed by substrate addition and measured after 10 mins by scintillation counting method relative to control; format: tissue-based; conditions: time 25.0 min
Cannabinoid receptor 2 = Cannabinoid receptor 2 (Homo sapiens, UniProt P34972); experiment: Displacement of [3H]-CP55940 from recombinant human CB2 receptor expressed in CHO cells incubated for 90 mins by scintillation counting method; format: cell-based
Cannabinoid receptor 2, sequence (P34972 whole entry): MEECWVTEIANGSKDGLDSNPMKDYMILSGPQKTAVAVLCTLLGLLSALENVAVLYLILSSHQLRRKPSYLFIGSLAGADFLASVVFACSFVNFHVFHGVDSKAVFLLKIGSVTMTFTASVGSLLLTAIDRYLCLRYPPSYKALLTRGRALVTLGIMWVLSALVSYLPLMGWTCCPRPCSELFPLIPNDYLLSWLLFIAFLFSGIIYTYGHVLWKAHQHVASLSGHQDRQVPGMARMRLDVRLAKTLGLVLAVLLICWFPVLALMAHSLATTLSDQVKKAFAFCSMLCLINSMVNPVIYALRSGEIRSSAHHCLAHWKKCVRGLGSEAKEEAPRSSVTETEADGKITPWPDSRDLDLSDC

[8] = target: T4, Fatty-acid amide hydrolase 1 (Mus musculus, UniProt O08914); experiment: Inhibition of FAAH in OF1 albino mouse brain homogenate assessed as reduction in [3H]ethanolamine production using [3H]anandamide as substrate; format: tissue-based
T4 sequence (O08914 whole entry): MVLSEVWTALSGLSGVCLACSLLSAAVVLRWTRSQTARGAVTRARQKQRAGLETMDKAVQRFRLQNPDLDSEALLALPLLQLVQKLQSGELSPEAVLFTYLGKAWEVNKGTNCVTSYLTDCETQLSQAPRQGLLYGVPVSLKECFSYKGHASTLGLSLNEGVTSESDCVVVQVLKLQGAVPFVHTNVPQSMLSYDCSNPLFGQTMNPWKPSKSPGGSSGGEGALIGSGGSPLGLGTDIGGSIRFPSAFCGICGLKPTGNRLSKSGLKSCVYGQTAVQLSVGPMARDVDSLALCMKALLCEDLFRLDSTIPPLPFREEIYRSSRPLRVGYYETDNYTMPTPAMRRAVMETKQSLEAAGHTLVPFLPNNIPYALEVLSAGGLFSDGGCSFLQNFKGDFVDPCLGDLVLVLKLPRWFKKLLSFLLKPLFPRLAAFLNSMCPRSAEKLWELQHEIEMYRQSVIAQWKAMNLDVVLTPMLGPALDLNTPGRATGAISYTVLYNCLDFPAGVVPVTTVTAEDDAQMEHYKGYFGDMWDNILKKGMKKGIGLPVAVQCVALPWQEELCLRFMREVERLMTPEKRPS

[9] = target: T2, Fatty-acid amide hydrolase 1; experiment: Inhibition of human recombinant FAAH using (AMC) arachidonoyl amide as substrate preincubated for 5 mins followed by substrate addition and measured after 30 mins by fluorescence method
[10] = target: T3, Fatty-acid amide hydrolase 1; experiment: Inhibition of rat FAAH expressed in HEK293 cells using AEA as substrate by HPLC-MS/MS analysis; format: cell-based

Structure (SMILES): CCCCCCCC/C=C\CCCCCCCC(=O)NO
inhibition [1]: 98.3%

Structure (SMILES): O=C(NCCCCN1CCN(c2cccc(Cl)c2Cl)CC1)Oc1cccc2ccccc12
IC50 [4]: 6.1 nM
IC50 [5]: 22 nM
solubility kinetic [6]: < 1 µM

Structure (SMILES): CN(C(=O)n1cnc(-c2ccc[n+]([O-])c2)c1)C1CCCCC1
inhibition [7]: 85%

Structure (SMILES): COc1ccc2c(cccc2[C@H]2CO[C@H](CCCNC(=O)OCC(N)=O)OC2)c1
IC50 [8]: 62.5 nM

Structure (SMILES): O=C(NCCCCN1CCN(c2cccc(Cl)c2Cl)CC1)Oc1ccc2ccccc2c1
IC50 [4]: 2.7 nM
IC50 [5]: 13 nM

Structure (SMILES): NC(=O)c1cccc(-c2cccc(OC(=O)NCCCN3CCN(c4cccc(Cl)c4Cl)CC3)c2)c1
IC50 [5]: 0.1 nM

Structure (SMILES): NC(=O)c1ccc(-c2ccc(OC(=O)NCCCCN3CCN(c4cccc(Cl)c4Cl)CC3)cc2)cc1
IC50 [4]: 0.6 nM
IC50 [5]: 0.7 nM

Further lines, results first:

IC50 [2]: > 10000 nM
Structure (SMILES): CCCCCOc1ccccc1-c1cc(C(=O)NC23CC4CC(CC(C4)C2)C3)no1

inhibition [3]: 19%
Structure (SMILES): CC(C)Cc1ccc(C(C)C(=O)NCc2c(Cl)cccc2Cl)cc1 (centres undefined)

inhibition [3]: 41%
Structure (SMILES): COc1cccc(N2CCN(C(=O)C(C)c3ccc(CC(C)C)cc3)CC2)c1 (centres undefined)

inhibition [3]: 33%
Structure (SMILES): Cc1ccccc1N1CCN(C(=O)C(C)c2ccc(CC(C)C)cc2)CC1 (centres undefined)

IC50 (Cannabinoid receptor 2): > 1000 nM
Structure (SMILES): CCCCCOc1ccc(-c2cc(C(=O)NC34CC5CC(CC(C5)C3)C4)no2)cc1

IC50 [9]: 1490 nM
Structure (SMILES): O=C1/C(=N/c2nc3ccccc3[nH]2)c2ccccc2N1C(=O)c1ccc(Cl)cc1Cl

IC50 [10]: 21 nM
Structure (SMILES): O=C(NCCCc1ccccc1)n1cc(C(F)(F)F)c(=O)[nH]c1=O

IC50 [10]: 53 nM
Structure (SMILES): O=C(NCCc1ccc(-c2ccccc2)cc1)n1ccc(=O)[nH]c1=O
